According to PubChem BioAssay AID248 (DTP/NCI, 2004):
Toxic doses and inconclusive results are not listed. No stated cut-off is given here; in the data, active means T/C of 150% or more; inactive means T/C below 125%.

System: L1210 leukemia ip in BDF1 mice, survival T/C
Assay: NCI In Vivo Anticancer Drug Screen. Data for tumor model L1210 Leukemia (intraperitoneal) in B6D2F1 (BDF1) mice
Conditions: endpoint: mean survival time, higher = longer survival
Procedure, shortened: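 Survival endpoint. Drug-treated group vs vehicle group, expressed as T divided by C. Tumor passaged by transplantation.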

[1] = dose: 100.0 mg/kg/injection, schedule: Q04DX003 (ip), vehicle: saline with Tween-80
[2] = dose: 50.0 mg/kg/injection, schedule: Q01DX009 (ip), vehicle: saline with Tween-80
[3] = dose: 100.0 mg/kg/injection, schedule: Q01DX009 (ip), vehicle: saline with Tween-80
[4] = dose: 200.0 mg/kg/injection, schedule: Q01DX009 (ip), vehicle: saline with Tween-80
[5] = dose: 100.0 mg/kg/injection, schedule: Q04DX002 (ip), vehicle: Klucel (hydroxypropylcellulose) (HPC)
[6] = dose: 200.0 mg/kg/injection, schedule: Q04DX002 (ip), vehicle: Klucel (hydroxypropylcellulose) (HPC)
[7] = dose: 400.0 mg/kg/injection, schedule: Q04DX002 (ip), vehicle: Klucel (hydroxypropylcellulose) (HPC)
[8] = dose: 100.0 mg/kg/injection, schedule: Q01DX001 (ip), vehicle: saline
[9] = dose: 200.0 mg/kg/injection, schedule: Q01DX001 (ip), vehicle: saline
[10] = dose: 400.0 mg/kg/injection, schedule: Q01DX001 (ip), vehicle: saline
[11] = dose: 200.0 mg/kg/injection, schedule: Q04DX003 (ip), vehicle: saline with Tween-80
[12] = dose: 100.0 mg/kg/injection, schedule: Q04DX003 (ip), vehicle: Klucel (hydroxypropylcellulose) (HPC)
[13] = dose: 200.0 mg/kg/injection, schedule: Q04DX003 (ip), vehicle: Klucel (hydroxypropylcellulose) (HPC)
[14] = dose: 400.0 mg/kg/injection, schedule: Q04DX003 (ip), vehicle: Klucel (hydroxypropylcellulose) (HPC)
[15] = dose: 100.0 mg/kg/injection, schedule: Q01DX009 (ip), vehicle: saline
[16] = dose: 100.0 mg/kg/injection, schedule: Q04DX003 (ip), vehicle: saline
[17] = dose: 200.0 mg/kg/injection, schedule: Q04DX003 (ip), vehicle: saline
[18] = dose: 100.0 mg/kg/injection, schedule: Q01DX009 (ip), vehicle: Klucel (hydroxypropylcellulose) (HPC)
[19] = dose: 200.0 mg/kg/injection, schedule: Q01DX009 (ip), vehicle: Klucel (hydroxypropylcellulose) (HPC)
[20] = dose: 400.0 mg/kg/injection, schedule: Q01DX009 (ip), vehicle: Klucel (hydroxypropylcellulose) (HPC)

Measured: T/C

O=C1NCN(c2ccccc2)C12CCNCC2
inactive: dose: 25.0 mg/kg/injection, schedule: Q01DX009 (ip), vehicle: saline sonified 108 % of control | dose: 25.0 mg/kg/injection, schedule: Q04DX003 (ip), vehicle: saline with Tween-80 89 % of control | dose: 50.0 mg/kg/injection, schedule: Q01DX009 (ip), vehicle: saline sonified 98 % of control | dose: 50.0 mg/kg/injection, schedule: Q04DX003 (ip), vehicle: saline with Tween-80 94 % of control | dose: 100.0 mg/kg/injection, schedule: Q01DX009 (ip), vehicle: saline sonified 103 % of control | dose: 100.0 mg/kg/injection, schedule: Q04DX003 (ip), vehicle: saline sonified 95 % of control | [1] 89 % of control

CC1(C)C2=CCCC(O)C2(C)CCC1O (stereo not drawn)
inactive: [2] 96 % of control | [3] 96 % of control | [4] 92 % of control

C#CC1(NC(=S)Nc2cccc(OC)c2)CCCCC1
inactive: [5] 94 % of control | [6] 109 % of control | [7] 96 % of control

NC(CSS(=O)(=O)O)=NCCSc1ccccc1
inactive: dose: 12.5 mg/kg/injection, schedule: Q04DX002 (ip), vehicle: Klucel (hydroxypropylcellulose) (HPC) 95 % of control | dose: 25.0 mg/kg/injection, schedule: Q04DX002 (ip), vehicle: Klucel (hydroxypropylcellulose) (HPC) 106 % of control | dose: 50.0 mg/kg/injection, schedule: Q04DX002 (ip), vehicle: Klucel (hydroxypropylcellulose) (HPC) 106 % of control

COc1ccc(-c2ccccc2)cc1C(=O)CCC(=O)O
inactive: [8] 100 % of control | [9] 96 % of control | [10] 96 % of control

COc1ccc2c(c1)OC(C)(C)C(c1ccccc1)C2c1ccc(OCCN2CCCC2)cc1 (stereo not drawn)
inactive: [1] 119 % of control | [11] 94 % of control | dose: 400.0 mg/kg/injection, schedule: Q04DX003 (ip), vehicle: saline with Tween-80 95 % of control

OC1c2cc(Br)ccc2-c2c(F)cc(Br)cc21 (stereo not drawn)
inactive: dose: 100.0 mg/kg/injection, schedule: Q01DX001 (ip), vehicle: carboxymethylcellulose (CMC) 100 % of control | dose: 200.0 mg/kg/injection, schedule: Q01DX001 (ip), vehicle: carboxymethylcellulose (CMC) 109 % of control | dose: 400.0 mg/kg/injection, schedule: Q01DX001 (ip), vehicle: carboxymethylcellulose (CMC) 103 % of control

CCCCCCCCC(S(=O)(=O)CC)S(=O)(=O)CC
inactive: [8] 97 % of control | [9] 94 % of control | [10] 92 % of control

C=CC(COC(C)=O)N1CC1 (stereo not drawn)
inactive: dose: 1.0 mg/kg/injection, schedule: Q01DX Z (ip), vehicle: carboxymethylcellulose (CMC) 100 % of control | dose: 2.0 mg/kg/injection, schedule: Q01DX Z (ip), vehicle: carboxymethylcellulose (CMC) 92 % of control | dose: 4.0 mg/kg/injection, schedule: Q01DX Z (ip), vehicle: carboxymethylcellulose (CMC) 104 % of control | dose: 5.0 mg/kg/injection, schedule: Q01DX Z (oral), vehicle: saline 101 % of control | dose: 7.5 mg/kg/injection, schedule: Q01DX Z (ip), vehicle: saline 104 % of control | dose: 7.5 mg/kg/injection, schedule: Q01DX Z (oral), vehicle: saline 104 % of control | dose: 8.0 mg/kg/injection, schedule: Q01DX Z (ip), vehicle: carboxymethylcellulose (CMC) 101 % of control | dose: 10.0 mg/kg/injection, schedule: Q01DX Z (oral), vehicle: saline 104 % of control | dose: 12.0 mg/kg/injection, schedule: Q01DX Z (ip), vehicle: carboxymethylcellulose (CMC) 110 % of control | dose: 15.0 mg/kg/injection, schedule: Q01DX Z (ip), vehicle: saline 121 % of control | dose: 15.0 mg/kg/injection, schedule: Q01DX Z (oral), vehicle: saline 105 % of control | dose: 20.0 mg/kg/injection, schedule: Q01DX Z (oral), vehicle: saline 114 % of control | dose: 25.0 mg/kg/injection, schedule: Q01DX Z (ip), vehicle: carboxymethylcellulose (CMC) 96 % of control | dose: 30.0 mg/kg/injection, schedule: Q01DX Z (ip), vehicle: saline 97 % of control | dose: 40.0 mg/kg/injection, schedule: Q01DX Z (oral), vehicle: saline 116 % of control | dose: 60.0 mg/kg/injection, schedule: Q01DX Z (oral), vehicle: saline 100 % of control

Cc1ccc(OCCOc2ccc([N+](=O)[O-])cc2)cc1
inactive: [12] 96 % of control | [13] 93 % of control | [14] 91 % of control

CNCCN(C)CCNC
inactive: dose: 50.0 mg/kg/injection, schedule: Q01DX009 (ip), vehicle: saline 104 % of control | [15] 101 % of control | [16] 103 % of control | [17] 96 % of control

O=C(O)CCCc1nccc2ccccc12
inactive: dose: 75.0 mg/kg/injection, schedule: Q01DX001 (ip), vehicle: saline 102 % of control | dose: 150.0 mg/kg/injection, schedule: Q01DX001 (ip), vehicle: saline 92 % of control

O=C1CC(Nc2ccc(F)cc2)C(=O)N1c1ccc(F)cc1 (stereo not drawn)
inactive: dose: 75.0 mg/kg/injection, schedule: Q04DX003 (ip), vehicle: other 90 % of control | dose: 150.0 mg/kg/injection, schedule: Q04DX003 (ip), vehicle: other 92 % of control | dose: 300.0 mg/kg/injection, schedule: Q04DX003 (ip), vehicle: other 90 % of control

C[N+](C)([O-])CCC=C1c2ccccc2CCc2ccccc21
inactive: dose: 12.5 mg/kg/injection, schedule: Q04DX003 (ip), vehicle: saline 103 % of control | dose: 25.0 mg/kg/injection, schedule: Q04DX003 (ip), vehicle: saline 106 % of control | dose: 50.0 mg/kg/injection, schedule: Q04DX003 (ip), vehicle: saline 103 % of control | [16] 103 % of control | [17] 97 % of control

O=C(O)C(O)(c1ccccc1)C1CCCCC1 (stereo not drawn)
inactive: dose: 100.0 mg/kg/injection, schedule: Q04DX002 (ip), vehicle: saline with Tween-80 91 % of control | dose: 200.0 mg/kg/injection, schedule: Q04DX002 (ip), vehicle: saline with Tween-80 105 % of control | dose: 400.0 mg/kg/injection, schedule: Q04DX002 (ip), vehicle: saline with Tween-80 98 % of control

CCCCOc1ccc(OC(=O)Nc2cc(C)ccc2C)cc1
inactive: [18] 91 % of control | [12] 108 % of control | [19] 96 % of control | [13] 95 % of control | [20] 98 % of control | [14] 90 % of control

CCCP(=S)(CCC)P(=S)(CCC)CCC
inactive: [5] 100 % of control | [6] 92 % of control | [7] 92 % of control

CC1(C)C2CCC1(C)C(c1ccc(O)cc1)C2 (stereo not drawn)
inactive: [12] 104 % of control | [13] 101 % of control | [14] 102 % of control

Cc1nc(C)c(Br)s1
inactive: dose: 25.0 mg/kg/injection, schedule: Q01DX009 (ip), vehicle: saline with Tween-80 97 % of control | [2] 96 % of control | [3] 112 % of control | [1] 105 % of control | [11] 110 % of control

NCCN(CCN)CCN
inactive: dose: 50.0 mg/kg/injection, schedule: Q01DX001 (ip), vehicle: saline 108 % of control | [8] 96 % of control | [9] 96 % of control | [10] 124 % of control

CNc1ccccc1C(N)=O
inactive: [18] 106 % of control | [12] 105 % of control | [19] 98 % of control | [13] 102 % of control | [20] 101 % of control | [14] 96 % of control

OC1CCOC1 (stereo not drawn)
inactive: [3] 98 % of control | [4] 97 % of control | dose: 400.0 mg/kg/injection, schedule: Q01DX009 (ip), vehicle: saline with Tween-80 98 % of control

COC(=O)C(C)CN1CC(C)OC(C)C1 (stereo not drawn)
inactive: [15] 95 % of control | [16] 102 % of control | dose: 200.0 mg/kg/injection, schedule: Q01DX009 (ip), vehicle: saline 97 % of control | [17] 98 % of control | dose: 400.0 mg/kg/injection, schedule: Q01DX009 (ip), vehicle: saline 95 % of control | dose: 400.0 mg/kg/injection, schedule: Q04DX003 (ip), vehicle: saline 104 % of control

CC(C)(CO)c1ccccc1
inactive: [8] 104 % of control | [9] 104 % of control | [10] 107 % of control
